Drawing on the supplement of paper PMC10307832, this text covers relative viability for one cell line.

Test in all cases: relative viability (nuclei count vs DMSO), 5 days (fraction); higher = more cells survive
Compound in assay [1]: CN1CCN(CC1)C2=CC(=C(C=C2)NC3=NC(=C(S3)C(=O)C4=C(C=CC=C4Cl)Cl)N)OC [XMD14-99] + C[C@]1(O)C[C@@H](c2nc(-c3ccc4ccc(-c5ccccc5)nc4c3)c3c(N)nccn32)C1 [Linsitinib] (partner 1 µM)
In outline: (§1)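 The day after seeding in 1536-well plates, lung cancer cell lines were treated by pin tool with a single drug, or with a fixed anchor-drug dose together with five library-drug doses (not always all listed) in √10 steps. After 5 days, a combined fix-and-stain solution (final 0.05% Triton X-100, 1% formaldehyde, 1 ug/ml Hoechst) was added. Nuclei counted on 4× images gave relative viability as treated counts over vehicle counts, reported as the median of duplicate plates.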

Compound in assay [2]: CN1CCN(CC1)C2=CC(=C(C=C2)NC3=NC(=C(S3)C(=O)C4=C(C=CC=C4Cl)Cl)N)OC [XMD14-99] + CS(=O)(=O)CCNCc1ccc(-c2ccc3ncnc(Nc4ccc(OCc5cccc(F)c5)c(Cl)c4)c3c2)o1 [Lapatinib] (partner 2 µM)
In a few lines: as §1

Compound in assay [3]: N[C@@H]1CCCN(c2c(/C=C3\SC(=O)NC3=O)cccc2-c2ccccc2)C1 [AZD1208] + Nc1ncn([C@H]2C[C@H](O)[C@@H](CO)O2)c(=O)n1 [Decitabine] (partner 2 µM)
In a few lines: as §1

Compound in assay [4]: N[C@@H]1CCCN(c2c(/C=C3\SC(=O)NC3=O)cccc2-c2ccccc2)C1 [AZD1208] + Cc1cc(Nc2cc(N3CCN(C)CC3)nc(Sc3ccc(NC(=O)C4CC4)cc3)n2)n[nH]1 [Tozasertib] (partner 0.1 µM)
In outline:
as §1

For UMC-11, the relative viability in assay [1] (first compound 0.08 µM) was determined as 1.03; in assay [1] (first compound 0.8 µM) it was 1.03; in assay [1] (first compound 2.53 µM) it was 1.03; in assay [1] (first compound 8 µM), 0.858; in assay [2] (first compound 0.08 µM), 1.13; in assay [2] (first compound 0.8 µM) it was 0.969. Besides, the relative viability in assay [2] (first compound 2.53 µM) came out at 0.974; in assay [2] (first compound 8 µM) it was 0.744; in assay [3] (first compound 0.08 µM), 0.478; in assay [3] (first compound 0.253 µM) it was 0.513; in assay [3] (first compound 0.8 µM), 0.49; in assay [3] (first compound 2.53 µM), 0.515. Moreover, the relative viability in assay [3] (first compound 8 µM) was 0.383; in assay [4] (first compound 0.08 µM) it was 0.204; in assay [4] (first compound 0.253 µM) it was 0.205; in assay [4] (first compound 0.8 µM), 0.211; in assay [4] (first compound 2.53 µM), 0.207; in assay [4] (first compound 8 µM) it was 0.21.
